Data from US11040038B2, “Methods for treating diseases associated with abnormal ACVR1 expression and ACVR1 inhibitors for use in the same” (Sumitomo Dainippon Pharma Oncology, Inc., priority 2018, dated 2021).
Where a chain is given by its changes, count along the chain named.

Tests used:
Assay in all cases: ACVR1 kinase assay, casein substrate, 33P-ATP, filter binding
Format in all cases: biochemical
Conditions in all cases: 10 μM ATP
[1] = biological target: T1, ACVR1 G328V (Homo sapiens, UniProt Q04771, G328V)
T1 sequence (Q04771 21-509 G328V): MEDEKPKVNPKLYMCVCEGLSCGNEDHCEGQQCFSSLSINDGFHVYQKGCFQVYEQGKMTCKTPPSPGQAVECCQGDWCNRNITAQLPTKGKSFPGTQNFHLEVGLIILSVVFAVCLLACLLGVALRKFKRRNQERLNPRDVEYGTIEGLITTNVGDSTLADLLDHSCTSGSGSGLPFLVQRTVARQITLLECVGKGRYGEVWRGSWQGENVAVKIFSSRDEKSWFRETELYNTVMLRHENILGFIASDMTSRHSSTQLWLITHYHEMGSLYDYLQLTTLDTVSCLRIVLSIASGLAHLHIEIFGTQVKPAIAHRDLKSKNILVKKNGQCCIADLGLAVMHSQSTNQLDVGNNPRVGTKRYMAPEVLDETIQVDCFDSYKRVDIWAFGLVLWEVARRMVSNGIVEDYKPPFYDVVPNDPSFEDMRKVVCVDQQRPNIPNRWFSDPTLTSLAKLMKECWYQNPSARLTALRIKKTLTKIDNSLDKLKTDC
Protocol: (§1) In brief, casein-based substrates were prepared. The respective ACVR1 kinase was added to the substrate mixture and hot/cold 33P-ATP (10 μM) was added to initiate the reaction. The activity was then measured with a filter binding method.
(§2) The IC50 values against the kinases are listed below in Table 3.

[2] = biological target: T2, ACVR1 R258G (Homo sapiens, UniProt Q04771, R258G)
T2 sequence (Q04771 21-509 R258G): T1 sequence (Q04771 21-509 G328V) with R238G, V308G
Protocol: as §1, §2

[3] = biological target: T3, ACVR1 R206H (Homo sapiens, UniProt Q04771, R206H)
T3 sequence (Q04771 21-509 R206H): T1 sequence (Q04771 21-509 G328V) with R186H, V308G
Protocol: as §1, §2

IC50 [1]: 0.0138 µM
IC50 [2]: 0.0516 µM
IC50 [3]: 0.0038 µM
Compound: COc1cc(Nc2nccc(Nc3cccnc3-c3ccccn3)n2)ccc1N1CCN(C)CC1 [Compound 2, N^4-(2,2′-bipyridin-3-yl)-N^2-(3-methoxy-4-(4-methylpiperazin-1-yl)phenyl)pyrimidine-2,4-diamine]
